Earlier results on one compound are cited in patent US20130146496A1, “SOLID PHARMACEUTICAL FORMULATIONS OF RAMIPRIL AND AMLODIPINE BESYLATE, AND THEIR PREPARATION” (priority 2010, published 2013).

The conditions of data set [1]: in vivo.

As to `CCOC(=O)C1=C(COCCN)NC(C)=C(C(=O)OC)C1c1ccccc1Cl` (racemic) [Amlodipine besylate, 3-ethyl-5-methyl-(+-)-2-[(2-aminoethoxy)methyl]-4-(2-chlorophenyl)-1,4-dihydro-6-methylpyridine-3,5-dicarboxylate], the solubility in water result is “slightly soluble”. The absolute bioavailability in data set [1] is 64-90%.
